Consider 19 compounds from publication PMC9264115, “Pd-catalyzed C–C and C–N cross-coupling reactions in 2-aminothieno[3,2-d]pyrimidin-4(3H)-one series for antiplasmodial pharmacomodulation” (RSC Advances, 2022).

Structures are written as SMILES.

Data set [1] can be described thus: Cytotoxic evaluation, MTT assay. The conditions noted are these: HepG2 cells, human HepG2 cell line, three independent experiments. Type of data set: cell-based. On the procedure:
The HepG2 cell line was maintained at 37 °C, 5% CO2, at 90% humidity in […] supplemented with 10% fetal bovine serum, 1% L-glutamine (200 mM), and penicillin (100 U per mL)/streptomycin (100 μg mL^−1) (complete RPMI medium). The cytotoxicity of the tested molecules on the HepG2 (hepatocarcinoma cell line purchased from ATCC, ref HB-8065) cell line was assessed according to the method of Mosmann[20] with slight modifications. Briefly, 5 × 10^3 cells in 100 μL of complete medium were inoculated into each well of 96-well plates and incubated at 37 °C in humidified 5% CO2. After 24 h incubation, 100 μL of medium with various product concentrations dissolved in DMSO (final concentration less than 0.5% v/v) were added and the plates were incubated for 72 h at 37 °C. Triplicate assays were performed for each sample. Each plate was then microscopically examined for possible precipitate formation before the medium was aspirated from the wells. Next, 100 μL of MTT (3-(4,5-dimethyl-2-thiazolyl)-2,5-diphenyl-2H-tetrazolium bromide) solution (0.5 mg mL^−1 in medium without FBS) was added to each well. Cells were incubated for 2 h at 37 °C. After this time, the MTT solution was removed and DMSO (100 μL) was added to dissolve the resulting blue formazan crystals. Plates were shaken vigorously (700 rpm) for 10 min. The absorbance was measured at 570 nm with 630 nm as a reference wavelength using a BIO-TEK ELx808 Absorbance Microplate Reader (LabX, Midland, ON, Canada). DMSO was used as a blank and doxorubicin (purchased from Sigma Aldrich) as a positive control. Cell viability was calculated as a percentage of control (cells incubated without the compound). […] CC50 values to represent the mean value calculated from three independent experiments.

Data set [2] concerns K1 culture-adapted P. falciparum strain. The data set can be described thus: Antiplasmodial evaluation, SYBR Green I fluorescence-based drug susceptibility test. In kind it is cell-based. The conditions noted are these: for EC50: Plasmodium falciparum, multi-resistant K1 strain of P. falciparum, 72 h incubation, three independent experiments, read-out: EC50 PfK1; for SI (selectivity index): from CC50 HepG2 and EC50 PfK1. As for the experimental part:
[…]. Parasitemia was maintained daily between 1 and 3%. The P. falciparum drug susceptibility test was carried out by comparing quantities of DNA in treated and control cultures of parasite in human erythrocytes according to a SYBR Green I fluorescence-based method[19] using a 96-well fluorescence plate reader. Compounds previously dissolved in DMSO (final concentration less than 0.5% v/v) were incubated in a total assay volume of 200 μL (RPMI, 2% hematocrit and 0.4% parasitemia) for 72 h in a humidified atmosphere (10% O2 and 5% CO2) at 37 °C in 96-well flat bottom plates. Duplicate assays were performed for each sample. After incubation, plates were frozen at […] for 24 h. Then, the frozen plates were thawed for 1 h at 37 °C. Fifteen μL of each sample were transferred to 96-well flat bottom non-sterile black plates (Greiner Bio-one, Kremsmünster, Austria), already containing 15 μL of the SYBR Green I lysis buffer (2X SYBR Green I, 20 mM Tris base pH 7.5, 20 mM EDTA, 0.008% w/v saponin, 0.08% w/v Triton X-100). […] Plates were incubated for 15 min at 37 °C and then read on a TECAN Infinite F-200 spectrophotometer with excitation and emission wavelengths at 485 and 535 nm, respectively.

Regarding `CC(C)(C)Nc1nc2cc(Nc3ccc(F)cc3)sc2c(=O)[nH]1` [Compound 1e, 2-tert-Butylamino-6-[(4-fluorophenyl)amino]thieno[3,2-d]pyrimidin-4(3H)-one], the melting point (usually the temperature of the solid-liquid transition) was 195 to 197 °C. For the same compound, in data set [1], the CC50 (commonly the concentration that lowers cell viability or growth by half) at 72 h amounted to 21.3 ± 1.6 µM. Moreover, in data set [2], the EC50 (in general, the midpoint of the concentration-response curve) was 7.1 ± 1.4 µM and the “SI (selectivity index)” value came out at 3.0.

Regarding `CC(C)(C)Nc1nc2cc(N3CCOCC3)sc2c(=O)[nH]1` [Compound 1f, 2-tert-Butylamino-6-(morpholin-4-yl)thieno[3,2-d]pyrimidin-4(3H)-one], the melting point was in the range of 264 to 266 °C. The same compound showed a CC50 at 72 h in data set [1] above 50 µM. In data set [2], the concentration for a half-maximal effect (EC50) was determined as 4.5 ± 1.1 µM and the “SI (selectivity index)” value is given as above 11.1.

The compound `Cc1ccc(C#Cc2cc3nc(NC(C)(C)C)[nH]c(=O)c3s2)cc1` [Compound 2b, 2-tert-Butylamino-6-[(4-methylphenyl)ethynyl]thieno[3,2-d]pyrimidin-4(3H)-one] had a melting point of 235 to 237 °C. This compound also displayed a CC50 at 72 h in data set [1] above 12.5 µM. In addition, in data set [2], the EC50 is 2.35 ± 0.38 µM and the “SI (selectivity index)” value is on record as above 5.3.

For `Cc1ccc(C#Cc2cc3nc(NC(C)C)[nH]c(=O)c3s2)cc1` [Compound 2c, 6-[(4-methylphenyl)ethynyl]-2-(propan-2-ylamino)thieno[3,2-d]pyrimidin-4(3H)-one], the melting point was in the range of 277 to 279 °C. The compound further came in with a half-maximal cytotoxic concentration (CC50) at 72 h in data set [1] of 3.1 ± 0.6 µM. Moreover, in data set [2], the EC50 was 4.6 ± 1 µM and the “SI (selectivity index)” value is 0.7.

Consider `CC(C)(C)Nc1nc2cc(C#CC3CC3)sc2c(=O)[nH]1` [Compound 2e, 2-tert-Butylamino-6-(cyclopropylethynyl)thieno[3,2-d]pyrimidin-4(3H)-one], for which the melting point lay in the range of 158 to 160 °C. Half-maximal cytotoxicity in data set [1] (CC50 at 72 h) was put at 20.8 ± 1.4 µM. In data set [2], the EC50 worked out at 1.9 ± 0.6 µM and the “SI (selectivity index)” value was 10.9.

In turn, `CC(C)Nc1nc2cc(C#Cc3ccccc3)sc2c(=O)[nH]1` [Compound 2h, 6-(phenylethynyl)-2-(propan-2-ylamino)thieno[3,2-d]pyrimidin-4(3H)-one] returned a melting point of 276 to 278 °C. Moreover, in data set [1], the CC50 at 72 h is above 12.5 µM. In data set [2], the EC50 is 2.8 ± 1 µM and the “SI (selectivity index)” value is above 4.5.

The compound `CC(C)Nc1nc2cc(Br)sc2c(=O)[nH]1` [Compound 3, 6-Bromo-2-(propan-2-ylamino)thieno[3,2-d]pyrimidin-4(3H)-one] registered a melting point of 240 to 242 °C. This compound also showed a CC50 at 72 h in data set [1] of 89.1 ± 9.7 µM. In addition, in data set [2], the EC50 was above 50 µM and the “SI (selectivity index)” value is below 1.8.

`COC(=O)c1ccc(-c2cc3nc(NC(C)(C)C)[nH]c(=O)c3s2)cc1` [Compound 4a, Methyl-4-(2-tert-butylamino-4-oxo-3,4-dihydrothieno[3,2-d]pyrimidin-6-yl)benzoate] gave a melting point above 300 °C. In data set [1], this compound came in with a CC50 at 72 h above 12.5 µM. In data set [2], the EC50 stood at 2.5 ± 0.9 µM and the “SI (selectivity index)” value is above 5.0.

For the compound `CC(C)(C)Nc1nc2cc(-c3ccc(F)c(Cl)c3)sc2c(=O)[nH]1` [Compound 4e, 2-tert-Butylamino-6-(3-chloro-4-fluorophenyl)thieno[3,2-d]pyrimidin-4(3H)-one], the melting point lay in the range of 259 to 261 °C. The compound further came in with a CC50 at 72 h in data set [1] above 12.5 µM. For the same compound, in data set [2], the EC50 turned out to be 2 ± 0.9 µM and the “SI (selectivity index)” value is above 6.3.

`CC(C)Nc1nc2cc(-c3ccc(F)c(Cl)c3)sc2c(=O)[nH]1` [Compound 4f, 2-(Propan-2-ylamino)-6-(3-chloro-4-fluorophenyl)thieno[3,2-d]pyrimidin-4(3H)-one] yielded a melting point above 300 °C. Also, in data set [1], the CC50 at 72 h is above 6.25 µM. Also, in data set [2], the EC50 was determined as 3.6 ± 1.2 µM and the “SI (selectivity index)” value is recorded as above 1.7.

In turn, `CC(C)(C)Nc1nc2cc(-c3ccc(N4CCOCC4)cc3)sc2c(=O)[nH]1` [Compound 4g, 2-tert-Butylamino-6-[4-(morpholin-4-yl)phenyl]thieno[3,2-d]pyrimidin-4(3H)-one] had a melting point above 300 °C. The same compound displayed a half-maximal cytotoxic concentration (CC50) at 72 h in data set [1] of 7.9 ± 1.3 µM. In data set [2], the EC50 is 2.4 ± 0.9 µM and the “SI (selectivity index)” value is 3.3.

With `CSc1ccc(-c2cc3nc(NC(C)(C)C)[nH]c(=O)c3s2)cc1` [Compound 4j, 2-tert-Butylamino-6-[4-(methylsulfanyl)phenyl]thieno[3,2-d]pyrimidin-4(3H)-one], the melting point lay within 272 to 274 °C. Moreover, the CC50 at 72 h in data set [1] was above 12.5 µM. For the same compound, in data set [2], the EC50 worked out at 1 ± 0.3 µM and the “SI (selectivity index)” value is above 12.5.

In turn, `CC(C)(C)Nc1nc2cc(-c3ccc(S(N)(=O)=O)cc3)sc2c(=O)[nH]1` [Compound 4l, 4-(2-tert-Butylamino-4-oxo-3,4-dihydrothieno[3,2-d]pyrimidin-6-yl)benzenesulfonamide] displayed a melting point above 300 °C. Besides, in data set [1], the CC50 at 72 h was above 6.25 µM. Also, the EC50 in data set [2] is above 12.5 µM.

For the compound `CC(C)(C)Nc1nc2cc(-c3ccc(S(=O)(=O)N4CCOCC4)cc3)sc2c(=O)[nH]1` [Compound 4m, 2-tert-Butylamino-6-[4-(morpholin-4-ylsulfonyl)phenyl]thieno[3,2-d]pyrimidin-4(3H)-one], the melting point was above 300 °C. The compound further came in with a CC50 at 72 h in data set [1] above 12.5 µM. In data set [2], the EC50 turned out to be 5.1 ± 2.6 µM and the “SI (selectivity index)” value is recorded as above 2.5.

`CC(C)(C)Nc1nc2cc(-c3cnc(N4CCOCC4)nc3)sc2c(=O)[nH]1` [Compound 4n, 2-tert-Butylamino-6-[2-(morpholin-4-yl)pyrimidin-5-yl]thieno[3,2-d]pyrimidin-4(3H)-one] registered a melting point above 300 °C. This compound showed a CC50 at 72 h in data set [1] of 26.4 ± 4.6 µM. In data set [2], the EC50 was 2.1 ± 0.6 µM and the “SI (selectivity index)” value came out at 12.6.

As to `CN1CCN(c2ncc(-c3cc4nc(NC(C)(C)C)[nH]c(=O)c4s3)cn2)CC1` [Compound 4o, 2-tert-Butylamino-6-[2-(4-methylpiperazin-1-yl)pyrimidin-5-yl]thieno[3,2-d]pyrimidin-4(3H)-one], the melting point lay within 289 to 291 °C. The compound further showed a cytotoxic concentration (CC50) at 72 h in data set [1] of 11.2 ± 1.3 µM. Also, in data set [2], the EC50 was 4.4 ± 1 µM and the “SI (selectivity index)” value is 2.5.

`CC(C)(C)Nc1nc2cc(-c3ccc(N)cc3)sc2c(=O)[nH]1` [Compound 4p, 6-(4-aminophenyl)-2-tert-butylaminothieno[3,2-d]pyrimidin-4(3H)-one] yielded a melting point of 259 to 261 °C. Besides, the midpoint of cytotoxicity in data set [1], the CC50 at 72 h, lay at 2.5 ± 1 µM. For the same compound, in data set [2], the EC50 came out at 3.5 ± 1.2 µM and the “SI (selectivity index)” value amounted to 0.7.

The compound `CC(=O)Nc1ccc(-c2cc3nc(NC(C)(C)C)[nH]c(=O)c3s2)cc1` [Compound 4r, N-[4-(2-tert-butylamino-4-oxo-3,4-dihydrothieno[3,2-d]pyrimidin-6-yl)phenyl]acetamide] gave a melting point above 300 °C. The same compound displayed a CC50 at 72 h in data set [1] of 0.16 ± 0.04 µM. In data set [2], the EC50 amounted to 3.9 ± 1.1 µM and the “SI (selectivity index)” value is on record as below 0.1.

Compound `CC(C)(C)Nc1nc2cc(-c3ccc(S(C)(=N)=O)cc3)sc2c(=O)[nH]1` (stereo not drawn) [Compound 4s, 2-tert-Butylamino-6-[4-(methylsulfonimidoyl)phenyl]thieno[3,2-d]pyrimidin-4(3H)-one] returned a melting point of 251 to 253 °C. In data set [1], this compound displayed a CC50 at 72 h of 63.3 ± 14.6 µM. Besides, in data set [2], the EC50 was above 12.5 µM and the “SI (selectivity index)” value is reported as below 5.1.
